# Test results reported in patent US20160367708A1, “COMPOSITIONS AND METHODS OF TREATING CANCER” (THE JOHNS HOPKINS UNIVERSITY, priority 2013, published 2016).
# What was measured:
# HeLa cell xenografts = conditions: applicants' earlier work, cited from earlier work; for inhibition of xenograft tumor growth: nude mice, single low-dose IV injection
# [1] = tested on: mouse BALB/c CRL2836 cell line or the human HeLa cell line; test: WST-1 cell proliferation assay, ^32P taken up from the medium versus ^32P held in tubes (electron bombardment only); format: cell-based; conditions: isotope added directly to the medium for 1 day, compared with isotope kept in tubes in the wells; followed up to six days
# Method: FIG. 1. A cell proliferation assay using WST-1 was performed to assess the relative cell killing ability of ^32Pmonophosphate that is taken up by cells into the DNA versus that which is not taken up by the cells, but subjected only to electron bombardment.
# Measurement of In Vitro Cell Killing by ^32P Radioisotope. Two thousand cells of the mouse BALB/c CRL2836 cell line or the human HeLa cell line were growing in complete medium in wells of a 96-well plate and were exposed to either 0 uCi, 3 uCi or 10 uCi of the [^32P]pyrophosphate or the [^32P]monophosphate radioisotopes. One set of triplicate wells contained medium with the designated form of the isotope, while another set of triplicate wells had the isotope contained in small tubes placed in the wells. […] After a 24 hour exposure time, fresh non-radioactive medium was added and WST-1 proliferation assays were done at several subsequent time points.
# To assess the relative cell killing ability of [^32P]monophosphate that is taken up by cells into the DNA versus that of is not taken up by the cells, but subjected only to electron bombardment, a cell proliferation assay using WST-1 was undertaken (FIG. 1). […]
# [2] = tested on: BALB/c tumor CRL2836 cells; test: WST-1 cell proliferation assay, [^32P]PO4 versus ^90Y; format: cell-based, mouse
# Method: (§1) FIG. 2. Inhibition of cell growth by [^32P]PO4 or [^90Y]. The WST-1 proliferation assay was done to determine the level of cell kill by ^32P or by ^90Y. BALB/c tumor CRL2836 cells or HeLa cells were exposed to 0 Ci, 1 μCi, 2.5 μCi, or 5 μCi in complete medium. After 24 hours, the radioactivity was removed and cells were grown in non-radioactive complete medium. WST-1 cell proliferation assays were done at Days 1, 2, 3, 4, and 5 and all assays were done in triplicate. The mean is shown plus/minus the standard deviation. The student's two-sided t-test determined the P value shown.
# (§2) Measurement of in vitro cell killing by ^32P and ^90Y. Two thousand cells of the mouse BALB/c CRL2836 cell line or the human HeLa cell line were grown in complete medium in a 96-well plate and at Day 0 were exposed to either 0, 1, 2.5, or 5 μCi of ^90Y radioisotope or the [^32P]PO4 radioisotope in complete medium. After a 24 h incubation, the radioisotope-containing medium was removed and replaced with non-radioactive complete medium (Day 1). […]
# (§3) Statistical analysis. The data from the WST-1 cell proliferation are presented as means±standard deviation and the significance was determined using the unpaired Student's t test. […] The significance was determined using the unpaired Student's t test.
# HeLa cells [3] = test: as above; format: cell-based, human
# Method: as §1, §2, §3
# HeLa cells [4] = test: H2AX immunostain assay of double-strand DNA breaks, ^32P versus ^90Y; format: cell-based, human; conditions: 3 μCi for 24 h, Day 1, 2 or 3
# Method: FIG. 4. Determination of double-strand DNA breaks in cells caused by exposure to [^32P]PO4 or ^90Y. HeLa cells or mouse BALB/c CRL2836 cells were grown in multiple sections of chamber slides and exposed to 0 μCi or 3 μCi of [^32P]PO4 or ^90Y in complete medium at Day 0. After 24 hours, the radioactivity was removed and cells were grown in non-radioactive complete medium. At Day 1, 2, or 3 the presence of double-strand DNA breaks in the cells was determined by staining for phosphorylated H2-AX histones which indicate double-strand DNA damage.
# Assessment of Double-Strand DNA Breaks by ^32P and ^90Y. Ten thousand HeLa cells were seeded in Lab-TekII chamber slides (Thermo Fisher Scientific Inc., Waltham, Mass.). At Day 0 cells were treated with 0 or 3 μCi of ^32P or ^90Y in complete medium. At Day 1, all wells were gently washed and fresh non-radioactive medium was added. At Day 1, Day 2, or Day 3, cells were fixed with 10% formalin at room temperature for 10 min, washed with PBS for two min, and permeabilized with 0.2% Triton X-100 with 10% FBS in PBS for 15 min. After a rinse with PBS, primary mouse anti-human H2AX antibody with 1:1000 dilution (Millipore, Billerica, Mass.) was incubated for 1 h at ambient temperature, and washed twice with PBS for 5 min. […]
# [5] = tested on: Syngeneic BALB/c CRL2836 tumors; test: ^32P-mediated tumor growth inhibition in syngeneic BALB/c mice; format: in vivo, mouse; conditions: for inhibition of established syngeneic tumor growth: single IV injection of 5 μCi ten days after tumor cell injection
# Source text: FIG. 5. Inhibition of BALB/c syngeneic tumor growth by [^32P]PO4. Syngeneic BALB/c CRL2836 tumors were established in the rear flanks of BALB/c mice at Day 0. After ten days during which the tumors became well vascularized, mice received an injection of 5 μCi of [^32P]PO4 intra-venously via the tail vein. The tumor volumes are shown as the mean of six tumors plus/minus the standard error of the mean. The student's two-sided t-test determined the P value shown.
# Establishment of mouse tumors. Syngeneic BALB/c mouse tumors were established by injecting 2×10^6 BALB/c tumor CRL2836 cells ([…], Manassas, Va.) in a volume of 0.2 mL (50% Matrigel, 50% 1×PBS) subcutaneously in the left rear and right rear flank. All mice were female, 10 weeks of age, and purchased from Charles River Laboratories (Wilmington, Mass.).
# ^32P-Mediated tumor growth inhibition. After ten days, during which time well-vascularized tumors were established, an injection of 5 μCi of the monophosphate form of ^32P (Perkin-Elmer, Cat. # NEX06000) was injected intravenously via the tail vein in 0.1 mL of 1×HBSS. Six tumors (three animals) were studied in each group. After injection, tumor growth was measured three times per week with a digital caliper and the volume was determined using the formula: volume=½(width)^2×(length).
# Statistical analysis. The data from the WST-1 cell proliferation are presented as means±standard deviation and the significance was determined using the unpaired Student's t test. The tumor volumes of the untreated and treated mice are shown as means±SE and no outliers were excluded for any reason. The significance was determined using the unpaired Student's t test.
# [6] = 24 h exposure to identical amounts of isotope
Compound,inhibition of xenograft tumor growth (HeLa cell xenografts),cell death as monitored by the lack of cell growth [1],"survival rates at Day 5 relative to ^90Y ([2]; 2.5 μCi and 5 μCi doses, Day 5)","cell killing efficiency compared with ^90Y [2, 6]","survival rates at Day 5 relative to ^90Y (HeLa cells [3]; 2.5 μCi and 5 μCi doses, Day 5)",cell killing efficiency compared with ^90Y (HeLa cells [3]; [6]),double-strand DNA breakage (nuclear staining for phosphorylated H2AX) (HeLa cells [4]),"effects on the health of the mice (weight gain, overall activity levels) ([5]; single IV injection of 5 μCi)",inhibition of established syngeneic tumor growth [5],inhibition of established syngeneic tumor growth ([5]; listed as 32P),"detrimental effects (weight gain, general activity, overall health) (HeLa cell xenografts; xenografted nude mice)"
[^32P]ATP,significant inhibition,,,,,,,,,,
"O=[32P](O)(O)O [[^32P]PO4, ^32P monophosphate]",strongly and effectively inhibited tumor growth,far greater levels of cell death,barely half of those produced by ^90Y,killed cells more efficiently than did ^90Y,barely half of those produced by ^90Y,killed cells more efficiently than did ^90Y,"significant, time-dependent double-strand DNA breakage",no apparent detrimental effects,significantly inhibited,strongly and effectively inhibited tumor growth,no apparent detrimental effects
